This note sets out measurements from patent US20160281125A1, “ANTIMICROBIAL COMPOUND SUSCEPTIBILITY TEST” (priority 2013, published 2016).

The subject of assay [1] is strains previously considered resistant to meropenem. Kind of assay: Selective lysis OD600 test, summary over the strains of Table 2. Format: cell-based, Klebsiella pneumoniae, Klebsiella oxytoca. The settings on record: 8 of the 9 strains of Table 2. As to the method:
An isolated colony from an overnight Tryptocase Soy Agar (TSA) plate of each bacterial strain was suspended in 1 ml Tryptocasc Soy Broth (TSB) in a 5 ml BD polystyrene round bottom tube. TSB cultures were incubated shaking at 37° C. overnight. Ten of the overnight culture was inoculated into lml TSB and incubated shaking at 37° C. for three hours. Two […] aliquots of each log-phase culture were then transferred to two 2 ml Eppendorf microcentrifuge tubes. One tube contained 5000 of Normal Saline (BD); the second tube contained 5000 Normal Saline with meropenem at 10 μg/ml (final concentration of meropenem of 6.67 10 μg/ml). Tubes were inverted and then incubated at 37° C. stagnant for thirty minutes. Then […] of lysis buffer (0.5% SDS in PSB) (final concentration of SDS of 0.125%) was added to each tube and the tubes were vortexed for 5 seconds. Post incubation, all tubes were spun at 10000 G for 5 minutes. Supernatant was decanted and the pellet resuspended in Normal Saline. Tubes were vortexed again. OD600 was measured using Eppendorf uvettes in a spectrophotometer. The delta between the OD600 of the normal saline control and the OD600 for the test sample exposed to meropenem in normal saline was used to determine susceptibility of the bacterial strain to meropenem. […]

For assay [2], the system named is K. oxy KPC 46532. Kind of assay: Selective lysis test, OD600 turbidity (Example 1). Format: cell-based, Klebsiella oxytoca. As to the method: (§1) An isolated colony from an overnight Tryptocase Soy Agar (TSA) plate of each bacterial strain was suspended in 1 ml Tryptocasc Soy Broth (TSB) in a 5 ml BD polystyrene round bottom tube. TSB cultures were incubated shaking at 37° C. overnight. Ten of the overnight culture was inoculated into lml TSB and incubated shaking at 37° C. for three hours. Two […] aliquots of each log-phase culture were then transferred to two 2 ml Eppendorf microcentrifuge tubes. One tube contained 5000 of Normal Saline (BD); the second tube contained 5000 Normal Saline with meropenem at 10 μg/ml (final concentration of meropenem of 6.67 10 μg/ml). Tubes were inverted and then incubated at 37° C. stagnant for thirty minutes. Then […] of lysis buffer (0.5% SDS in PSB) (final concentration of SDS of 0.125%) was added to each tube and the tubes were vortexed for 5 seconds. Post incubation, all tubes were spun at 10000 G for 5 minutes. Supernatant was decanted and the pellet resuspended in Normal Saline. Tubes were vortexed again. OD600 was measured using Eppendorf uvettes in a spectrophotometer. The delta between the OD600 of the normal saline control and the OD600 for the test sample exposed to meropenem in normal saline was used to determine susceptibility of the bacterial strain to meropenem.
The tested resistant strains were Klebsiella pneumoniae carbapenemase (KPC)-producing bacteria (abbreviated “KPC”), KPC-producing Klebsiella oxytoca (abbreviated “KPC K. oxy), and Klebsiella pneumoniae producing Metallo-beta-lactamase-1 (NDM-1) (abbreviated “NDM”).

Assay [3] has as its system K. oxy strain 43086. Kind of assay: Selective lysis test, BacUni QuickFISH staining (Example 3). To be noted: FIG. 4; K. oxy 43086; meropenem 10 μg/ml, 30 min, SDS lysis. The class given is cell-based, K. oxytoca. An excerpt: An alternative to the spectrophotometer-based measurement of changes in turbidity for measuring cell lysis following treatment with the cell lysis conditions in Examples 1 and 2 is to stain samples using a stain that distinguishes between intact cells and lysed cells. In this example staining with BacUni QuickFISH™ was used to identify intact (i.e., non-lysed) cells. BacUN1 is a universal bacteria PNA probe that binds to an rRNA sequence present in most Gram-positive and Gram-negative bacteria. The PNA probe binds to universal rRNA in intact bacterial cells and the entire cell will appears green with fluorescent microscopy. If the bacterial cell had been lysed then the rRNA target would have been released from the bacterial cell and even of somewhat labeled it would not appear as a fluorescent bacterial cell.
An isolated colony from an overnight Tryptocase Soy Agar (TSA) plate of each bacteria was suspended in 1 ml Tryptocase Soy Broth (TSB) in a 5 ml BD polystyrene round bottom tube. TSB cultures were incubated at 37° C. overnight. Ten μl of overnight culture was inoculated into 1 ml TSB and incubated shaking at 37° C. for three hours. Two 250 μl aliquots of each log-phase culture was transferred to two 2 ml Eppendorf microcentrifuge tubes. […] The slide was viewed on fluorescence microscope using 60× oil immersion on Dual TxR/FITC. […]

The subject of assay [4] is strains previously considered susceptible to meropenem. Kind of assay: Selective lysis OD600 test, summary over the strains of Table 1. To be noted: 13 of 14 strains of Table 1. The class given is cell-based, Enterobacteriaceae. As to the method: as §1
Species abbreviations: sp. […]

Assay [5] relates to K. pneumo BAA2146 (NDM+). Kind of assay: Selective lysis test, flow cytometry cell count (Example 5). The class given is cell-based, K. pneumoniae. Details: key to R or S: R: meropenem resistant strain; S: meropenem sensitive strain. As to the method: (§2) An isolated colony from overnight Tryptocase Soy Agar (TSA) plate for each bacteria was suspended in 1 ml Tryptocase Soy Broth (TSB) in a 5 ml BD polystyrene round bottom tube. TSB cultures were incubated at 37° C. overnight. Ten μl of overnight culture was inoculated into 1 ml TSB and incubated shaking at 37° C. for three hours. Two 250 μl aliquots of each log-phase culture were transferred to two 2 ml Eppendorf microcentrifuge tubes. One tube contained 500 μl of Normal Saline (BD); the second tube contained 504.1 Normal Saline with meropenem at 10 μg/ml. Tubes were inverted then incubated at 37° C. stagnant for thirty minutes. An aliquot was removed at this point for flow cytometry measurement of the total cell count. Then 250 μl lysis buffer (0.5% SDS in PSB) was added to each tube and each tube was vortexed for 5 seconds. Post incubation, all tubes were spun at 10000 G for 5 minutes. Supernatant was decanted and the pellet resuspended in Normal Saline. Tubes were vortexed.
(§3) Re-suspended pellets were then diluted 20 times into a solution of 10 mM Tris-HCl pH=7.6, containing 2.5 μM SYTO 9 (stain permeable to all bacterial cells). Stained bacterial cells were analyzed by flow cytometry using the Guava EasyCyte™ Mini System equipped with a 488 nm diode laser, capillary flow cell, forward and side scatter detectors and fluorescence (green, yellow and red) detectors. Flow cytometry dot plots were acquired with CytoSoft (Guava ExpressPlus) software and cell counts were obtained.

Assay [6] relates to K. pneumo 13882 (NDM−). Described as above. Format: cell-based, K. pneumoniae. Further details: key to R or S: R: meropenem resistant strain; S: meropenem sensitive strain. As to the method:
as §2, §3

Where [7] appears, read: K. pneumo BAA2146 (NDM+), 10 μg/ml Meropenem, Post-lysis + spin.
Where [8] appears, read: K. pneumo 13882 (NDM−), 10 μg/ml Meropenem, Post-lysis + spin.

In the case of `C[C@@H](O)[C@H]1C(=O)N2C(C(=O)O)=C(S[C@@H]3CN[C@H](C(=O)N(C)C)C3)[C@H](C)[C@H]12` [meropenem], the “decrease of OD600 turbidity vs negative control” value was at most 18% in assay [1] and “at least 88%” in assay [4]. Moreover, the “R or S” value in assay [2] is reported as “S (a percentage change of greater than about 85% indicates a strain is susceptible)”; in assay [5] (setting [7]), “R”; in assay [6] (setting [8]) it was “S”. In assay [2] (OD600 vs control without meropenem), the “% Change” value is 71%. Besides, the “Mero OD600” value in assay [2] (meropenem 10 μg/ml, 30 min, SDS lysis buffer + vortex) worked out at 0.259. In assay [3], the “number of BacUni QuickFISH stained cells, treated vs not treated” value is “significant reduction in the number of stained cells”. The “Cell Number/ml” value in assay [5] (setting [7]) was 2.83e+06 mL⁻¹; in assay [5] (K. pneumo BAA2146 (NDM+), 10 μg/ml Meropenem, Pre-lysis) it was 3.04e+06 mL⁻¹; in assay [6] (setting [8]), 241000 mL⁻¹; in assay [6] (K. pneumo 13882 (NDM−), 10 μg/ml Meropenem, Pre-lysis) it was 2.38e+06 mL⁻¹. The “reduction in cell number after lysis and centrifugation” value in assay [5] (K. pneumoniae BAA2146 (NDM+), meropenem treated sample, post-lysis vs pre-lysis) is 7%; in assay [6] (K. pneumoniae 13882 (NDM−), meropenem treated sample, post-lysis vs pre-lysis), 90%.
